The record followed here is US9567347B2, “Use of small molecule inhibitors targeting the interaction between RAC GTPase and p67(phox)” (CHILDREN'S HOSPITAL MEDICAL CENTER, priority 2012, dated 2017).

Assay [1] deals with glucose oxidase-produced ROS. Description: luminol chemiluminescence assay of glucose oxidase-generated ROS. The format is cell-based, human. As to the method: Human neutrophils (2×10^5) were stimulated in HBSS supplemented with 0.1% BSA, 1 mM Ca2+, 1 mM Mg2+ and with fMLP (10 μM), PMA (300 nM) or glucose oxidase (200 mU/ml) for 30 min in the presence of 10 μM [8-amino-5-chloro-7-phenylpyrido[3,4-d]pyridazine-1,4(2H,3H)dione] (L012).
Chemiluminescence was measured using GloMax®-96 Microplate Luminometer (Promega) (Tarpey et al., (2004) Am J Physiol Regul Integr Comp Physiol 286: R431-R444, hereby incorporated by reference in its entirety). The generation of […] by the xanthine/xanthine oxidase was performed in PBS supplemented with xanthine oxidase (0.004 U), HRP (0.005 U·mL^−1) and L012, following the protocol described in Wind et al., (2010) Br J Pharmacol. 161, 885-898, hereby incorporated by reference in its entirety. The reaction was started by the addition of xanthine (0.5 mM).

The target of the next assay is T1, p67^phox mutation, R188A (Homo sapiens, UniProt P19878, R188A).
T1 construct: using the pET30-HIS p67(1-212) plasmid; His; made in house; host or cells: E. coli BL21(DE3)
T1 sequence (P19878 1-212 R188A): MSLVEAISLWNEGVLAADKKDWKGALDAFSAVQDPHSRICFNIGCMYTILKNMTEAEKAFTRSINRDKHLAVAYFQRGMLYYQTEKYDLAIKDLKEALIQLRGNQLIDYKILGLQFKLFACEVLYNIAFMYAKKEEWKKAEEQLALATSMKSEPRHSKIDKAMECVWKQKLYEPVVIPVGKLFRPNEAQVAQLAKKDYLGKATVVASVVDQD
Description: microscale thermophoresis binding to p67phox R188A mutant. The settings on record: residue outside region critical for Rac1-GTP interaction. As to the method:
The p67^phox protein was expressed in BL21(DE3) bacteria (Stratagene) using the pET30-HIS p67(1-212) plasmid. Protein was purified using the QIAexpress Ni-NTA kit (Qiagen) or the GST Bind Resin Chromatography Kit (Novagen) for RacV12 and RacWT proteins. Mutagenesis was carried out using the Quick Change Lightening Site Directed Mutagenesis Kit (Stratagene).
Proteins were labeled for microscale thermophoresis using the Monolith NT Protein Labeling Kit Red (Nano Temper Technologies) as recommended by the manufacturer. Binding reactions were carried out using the Monolith NT. 115 (Nano Temper Technologies). Binding data was analyzed using Graphpad Prizm to estimate Kd values. The arbitrary fluorescence value from the thermophoresis plots for the smallest compound titration was subtracted from every other data point (Delta depletion) prior to normalization to a Vmax of 100. In thermophoresis plots where there was no binding, a curve could not be fit and therefore no Vmax could be assigned. In these instances the highest delta depletion value was set to 100 and all data were normalized accordingly.
Next, to perform a competition binding, p67^phox protein was first incubated with either 5 μM Phox-I1 or an equal volume of vehicle control for 15 min prior to titration of purified Rac1V12 protein. […]
(Microscale thermophoresis detects binding through changes in fluorescence in a small temperature gradient.)

For `COc1ccc2c(c1)C1C=C(c3ccccc3)NN1C(c1cccc([N+](=O)[O-])c1)O2` (centres unmarked) [Phox-I1], the “effect on glucose oxidase-produced ROS” value in assay [1] was “did not affect”. Moreover, on p67^phox mutation, R188A, the “binding to p67^phox R188 mutant” value is “retained the binding activity”.
